Assay results taken from patent publication US20070281857A1, “FORMIC ACID AS AN HERBICIDE” (MARRONE ORGANIC INNOVATIONS, priority 2006, published 2007).
Like-named read-outs stand apart in the source and are kept apart here.

Tests used:
[1] = system: Taraxacum officinale (dandelion); conditions: one week, relative to control
Protocol: (§1) To further test the inhibitory effect of formic acid on germinating seeds, pots with 6-cm diameter were filled with 60 mL of silty clay loam soil passed through a 2-mm sieve, and five (5) seeds of either Taraxacum officinale (dandelion, representing a broadleaved weed) or Poa annua (annual bluegrass, representing a grass weed) were planted on the top. A solid form of the composition containing corn gluten meal granules (1-2 mm diameter) soaked in 0%, 5%, 10% or 20% formic acid solution and dried were placed on the top of the soil at rates 0.1, 0.25, 0.5 and 1.0 g/pot. The pots were kept at optimum water content under growth lights with a 12-h light/dark period at room temperature, and the number of germinated seeds was counted after one week.

[2] = system: Poa annua (annual bluegrass); conditions: one week, relative to control
Protocol: as §1

[3] = system: Lactuca sativa (lettuce) seed; conditions: stepwise dilution series from 25% to 0%
Description: Numerous natural compounds were screened for their ability to inhibit the germination of dicot seeds. A single seed of Lactuca sativa (lettuce) was placed in each well of a 96-well plate followed by a solution of each compound in a stepwise dilution series from 25% to 0%. Germination was monitored daily.

dicots (radishes) = conditions: solution in water at 0.5% and 0.1%
Description: (§2) Numerous natural compounds were screened for their ability to inhibit the germination of seeds. A single seed was placed in each well of a 96-well plate followed by a solution of each compound in water at both 0.5% and 0.1%. Germination was monitored at varying intervals, depending on the germination time in the control groups for the particular seed being used in the study.

monocots (wheat) = conditions: solution in water at 0.5% and 0.1%
Description: as §2

[4] = 5% formic acid in corn gluten meal granules 1-2 mm, 0.1 g/pot
[5] = 5% formic acid in corn gluten meal granules 1-2 mm, 0.25 g/pot
[6] = 5% formic acid in corn gluten meal granules 1-2 mm, 0.5 g/pot
[7] = 5% formic acid in corn gluten meal granules 1-2 mm, 1 g/pot
[8] = 10% formic acid in corn gluten meal granules 1-2 mm, 0.1 g/pot
[9] = 10% formic acid in corn gluten meal granules 1-2 mm, 0.25 g/pot
[10] = 10% formic acid in corn gluten meal granules 1-2 mm, 0.5 g/pot
[11] = 10% formic acid in corn gluten meal granules 1-2 mm, 1 g/pot
[12] = 20% formic acid in corn gluten meal granules 1-2 mm, 0.1 g/pot
[13] = 20% formic acid in corn gluten meal granules 1-2 mm, 0.25 g/pot
[14] = 20% formic acid in corn gluten meal granules 1-2 mm, 0.5 g/pot
[15] = 20% formic acid in corn gluten meal granules 1-2 mm, 1 g/pot
[16] = 20% formic acid in corn gluten meal granules 1-2 mm, 1 g/pot, listed as formic acid

Structure (SMILES): O=CO [Formic acid]
- germination rate (%) dandelion [1, 4]: 100%
- germination rate (%) dandelion [1, 5]: 50%
- germination rate (%) dandelion [1, 6]: 0%
- germination rate (%) dandelion [1, 7]: 0%
- germination rate (%) dandelion [1, 8]: 0%
- germination rate (%) dandelion [1, 9]: 0%
- germination rate (%) dandelion [1, 10]: 0%
- germination rate (%) dandelion [1, 11]: 100%
- germination rate (%) dandelion [1, 12]: 0%
- germination rate (%) dandelion [1, 13]: 0%
- germination rate (%) dandelion [1, 14]: 0%
- germination rate (%) dandelion [1, 15]: 0%
- germination rate (%) dandelion [1, 16]: inhibited the germination
- germination rate (%) annual bluegrass [2, 4]: 100%
- germination rate (%) annual bluegrass [2, 5]: 82%
- germination rate (%) annual bluegrass [2, 6]: 82%
- germination rate (%) annual bluegrass [2, 7]: 82%
- germination rate (%) annual bluegrass [2, 8]: 100%
- germination rate (%) annual bluegrass [2, 9]: 100%
- germination rate (%) annual bluegrass [2, 10]: 54%
- germination rate (%) annual bluegrass [2, 11]: 54%
- germination rate (%) annual bluegrass [2, 12]: 100%
- germination rate (%) annual bluegrass [2, 13]: 54%
- germination rate (%) annual bluegrass [2, 14]: 27%
- germination rate (%) annual bluegrass [2, 15]: 0%
- germination rate (%) annual bluegrass [2, 16]: inhibited the germination
- threshold value to inhibit germination of seeds [3]: 0.0013%
- ability to inhibit germination of seeds (dicots (radishes)): inhibit germination of seeds
- ability to inhibit germination of seeds (monocots (wheat)): inhibit germination of seeds
